Here are results for nine molecules from US20030134859A1 (SANKYO COMPANY, LIMITED, priority 2000, published 2003).

The structures appear in SMILES notation.

One experiment has as its system Rat white adipocytes. The experiment is described as follows: Stimulation of differentiation of the adipocytes (Oil Red O). The format is cell-based. The conditions noted are these: 100 nM test compound, 5 days, Oil Red O ABS550, control = 100%, blank = 0%, Table 7; for activity at 0.1 µM: Rattus norvegicus, Adipocyte, 120 h, read-out: Rate of Differentiation (%). The gist of the method: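 Oil Red O lipid staining, absorbance 550 nm after DMSO extraction, quantified differentiation of rat white adipocytes exposed 5 days to compound (final 100 nM, 0.1% DMSO) in differentiation medium. Percent differentiation normalised between cell-free blank (0%) and DMSO control (100%).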

Experiment [1] relates to Mouse preadipocyte strain 3T3-L1. The experiment is described as follows: Inhibition of differentiation as an indication of acetic acid uptake. The conditions noted are these: control (0.01% dimethylsulfoxide) = 100%; for activity at 0.1 µM: Mus musculus, 3T3-L1, 0.1 μM test substance, read-out: Rate of Uptake (%) of [2-14C] acetic acid. The format is cell-based. The essentials: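 Differentiation is indexed by 1 hr [2-14C]acetic acid incorporation, measured by scintillation counting and given as uptake relative to 0.01% DMSO control (100%). Mouse 3T3-L1 preadipocytes, pre-grown 10 days, received 0.1 μM test substance throughout a 4-day insulin/IBMX/dexamethasone induction, followed by 2 days' maintenance culture.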

Experiment [2] concerns human colon cancer cells COL-2-JCK. Description: Inhibition of colony forming activity in human colon cancer cells. The conditions noted are these: Homo sapiens, 240 h; 1 μM test compound; 10 days; sum of colony areas vs control; read-out: Inhibition Rate (%) against the colony forming activity. The format is cell-based. Here is the method:
For the medium to culture the human colon cancer cells, D-MEM/F-12 medium containing inactivated bovine fetal serum at a concentration of 10% (GIBCO) was used. The human colon cancer cells COL-2-JCK (purchased from Institute for Experimental Animals) grown in mass formation in a plastic dish for the cell culture with an inner diameter of 100 mm were stripped off from the dish by using EDTA (ethylenediaminetetraacetic acid) and 0.05% trypsin solution. Then, a cell dilution solution was prepared at a concentration of 100 cells/mL solution which was diluted with the medium (D-MEM/F-12).
Three (3) mL of the cell solution were inoculated in each well of a 6-well plastic plate (300 cells/well). The test compound that was dissolved in DMSO solution so as to be a final concentration of 1 μM of the test compound and that of DMSO solution of 0.1% was added to each well. DMSO solution alone was added into the well for the control so as to be a final concentration of 0.1%.
The cells in each well were cultured for 10 days at 37° C. in the presence of 5% CO2. After the culturing was finalised, each well was washed once with Dulbecco-phosphate-buffer-saline solution (bivalent anion). Then, 1.5 ml of neutral buffered formalin solution containing 0.02% crystal violet was added to each well and the plate was kept stationary for 5 min for fixation and staining the cells. After fixation and staining, the cells were washed with water and were air-dried. Then the sum of the colony area (mm^2) of the stained cancer cells was calculated by using an image analyzer PCA-11 (SystemScience). From the calculated values, the inhibition rate (%) of the compound against the colony forming activity was obtained based on the following equation.
Inhibition Rate (%) against the colony forming activity=(1−A/B)×100
A: Sum of Colony Areas in the Group Treated with 1 μM of the Test Compound
B: Sum of Colony Areas in the Control Group

A further experiment concerns TNF-α production. The experiment is described as follows: Inhibitory activity against cytokine (TNF-α) production in LPS-stimulated RAW264.7 cells. The format is cell-based, mouse. The settings on record: Mus musculus, RAW264.7, 15 h, 1 μM test compound, LPS 10 ng/mL. Here is the method:
The mouse monocyte/macrophage cell line, RAW264.7 (ATCC TIB71) was purchased from Dainippon Pharmaceutical Co., Ltd. The RAW264.7 cells were cultured in a CO2 incubator (37° C., 95% of humidity, 5% of CO2) by using the Dulbecco's modified Eagle's medium (DMEM medium; GIBCO, Cat. No. 11995-040) containing bovine fetal serum (the final concentration: 10% (v/v), MOREGATE, lot No. 474030), penicillin G (the final concentration: 50 units/mL […], GIBCO) and streptomycin (the final concentration: 20 μg/mL, GIBCO).
Sixty (60) μL of the RAW264.7 cell suspension (83,000 cells/mL) were plated into each well of a 96-well microplate (5,000 cells/well). After the cells were cultured for 4 hr in a CO2 incubator, 40 μL of DMEM medium containing 25 ng/mL of LPS (Sigma-Aldrich Japan K. K.) were added into each well (final concentration of LPS: 10 ng/mL). The test compound dissolved in DMSO at a concentration of 1 mM was diluted with DMEM medium by 20 times. Then 2 μL/well of the diluted solution were added to wells containing the plated cells (final concentration of the test compound: 1 μM). As the control, 2 μL/well of DMSO diluted with DMEM medium by 20 times were added to wells containing the plated cells either with LPS (final concentration: 10 ng/mL) or without LPS. After these cells were cultured in a CO2 incubator for 15 hr, the supernatant of the medium was recovered. The amount of mTNF-α in the medium supernatant was determined with a mouse TNF-α ELISA kit Quantikine M (R&D System), according to the experiment protocol attached with the kit.
The inhibitory activity of the test compound against TNF-α production was calculated according to the following equation.
A: The amount of TNF-α in the presence of test compound
B: The amount of TNF-α in the control without LPS
C: The amount of TNF-α in the control with 10 ng/mL of LPS
Inhibitory Activity of the Test Compound against TNF-α Production (%)=100−(A−B)/(C−B)×100

Take `CCc1cccc(NC(=O)c2cc([N+](=O)[O-])ccc2Cl)c1` [Example 14, N-(3-Ethylphenyl)-(2-chloro-5-nitrophenyl)carboxamide]: the values for the activity at 0.1 µM (with Rat white adipocytes; in experiment [1]) were 121% and 82.1%, respectively. In experiment [2], the inhibition at 1 µM worked out at 16%.
Regarding `CCCCOc1ccc(NC(=O)c2cc([N+](=O)[O-])ccc2Cl)cc1` [Example 17, N-(4-Butyloxyphenyl)-(2-chloro-5-nitrophenyl)carboxamide], the activity at 0.1 µM in the experiment with Rat white adipocytes worked out at 114%; in experiment [1], 91.9%. Moreover, in experiment [2], the inhibition at 1 µM stood at 30%.
In the case of `O=C(Nc1nc2ccccc2s1)c1cc([N+](=O)[O-])ccc1Cl` [Example 33, N-(Benzothiazol-2-yl)-(2-chloro-5-nitrophenyl)carboxamide], the activity at 0.1 µM was 127% with Rat white adipocytes and 86.1% in experiment [1]. In experiment [2], the inhibition at 1 µM was 60%.
`O=C(Nc1cccc2ncccc12)c1cc([N+](=O)[O-])ccc1Cl` [Example 56, N-(5-Quinolinyl)-(2-chloro-5-nitrophenyl)carboxamide]: the figures for the activity at 0.1 µM (in the experiment on Rat white adipocytes; in experiment [1]) were 114% and 32.4%, respectively. The inhibition at 1 µM in experiment [2] came to 6%.
Turning to `COc1ccc2nc(NC(=O)c3cc([N+](=O)[O-])ccc3Cl)sc2c1` [Example 67, N-(6-Methoxybenzothiazol-2-yl)-(2-chloro-5-nitrophenyl)carboxamide], the values for the inhibition at 1 µM (in the experiment with TNF-α production; in experiment [2]) were 23.2% and 31%, respectively. The activity at 0.1 µM in experiment [1] was 70.2%.
With `O=C(Nc1nc2c(Cl)cccc2s1)c1cc([N+](=O)[O-])ccc1Cl` [Example 69, N-(4-Chlorobenzothiazol-2-yl)-(2-chloro-5-nitrophenyl)carboxamide], the activity at 0.1 µM in the experiment on Rat white adipocytes was found to be 135%; in experiment [1] it was 57%. Also, in experiment [2], the inhibition at 1 µM stood at 84%.
For the molecule `O=C(Nc1cc(-c2ccccc2)[nH]n1)c1cc([N+](=O)[O-])ccc1Cl` [Example 72, N-(5-Phenylpyrazol-3-yl)-(2-chloro-5-nitrophenyl)carboxamide], the values for the activity at 0.1 µM (in the experiment with Rat white adipocytes; in experiment [1]) were 124% and 76.7%, respectively. Further, in experiment [2], the inhibition at 1 µM was found to be 39%.
With `O=C(Nc1ccc(S(=O)(=O)Nc2ncccn2)cc1)c1cc([N+](=O)[O-])ccc1Cl` [Example 95, N-[4-[(Pyrimidin-2-yl)aminosulfonyl]phenyl]-(2-chloro-5-nitrophenyl)carboxamide], the activity at 0.1 µM in the experiment on Rat white adipocytes stood at 115%; in experiment [1], 86.3%. Further, the inhibition at 1 µM in experiment [2] is 1%.
As to `Cl.O=C(Nc1ccc(-c2ccccn2)cc1)c1cc([N+](=O)[O-])ccc1Cl` [Example 147, N-[4-(Pyridin-2-yl)phenyl]-(2-chloro-5-nitrophenyl)carboxamide Hydrochloride], the “Rate of Differentiation (%)” value in the experiment on Rat white adipocytes amounted to 115.5%. In addition, the “Rate of Uptake (%) of [2-14C] acetic acid” value in experiment [1] (0.1 μM test substance) is listed as 76.2%. The inhibition at 1 µM in experiment [2] came to 19%.

Usually inhibition stands for how much of the control response was suppressed.
